Tested on: NCI-H1876 tumor spheroid viability
Experiment: Anticancer human tumor NCI-H1876 cell line growth inhibition;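 note: spheroids exposed to compounds for seven days before the viability read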;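 for viability, T/C: percent of DMSO vehicle control viability so 100% = vehicle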
Conditions: spheroids with HUVEC and MSC; for IC50: curve of first compound; for viability, T/C: stronger effect = lower value
How it was run: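 Complex spheroids of malignant cells with endothelial cells and mesenchymal stem cells; agents alone or combined, from near clinical Cmax (or 10 microM if unknown) down in half-log steps, 0.25% DMSO final.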

Cn1ncnc1[C@H]1c2n[nH]c(=O)c3cc(F)cc(c23)N[C@@H]1c1ccc(F)cc1 + COc1cc2c(cc1O)CCNC21CSC2c3c(OC(C)=O)c(C)c4c(c3C(COC1=O)N1C(O)C3Cc5cc(C)c(OC)c(O)c5C(C21)N3C)OCO4
IC50 (second compound 30 pM): 35.5 nM
IC50 (second compound 94.9 pM): < 9.49 nM
IC50 (second compound 0.0003 µM): < 9.49 nM
IC50 (second compound 0.000949 µM): < 9.49 nM
IC50 (second compound 0.003 µM): < 9.49 nM
viability, T/C (second compound 30 pM, first compound 0.00949 µM): 80.3%
viability, T/C (second compound 30 pM, first compound 0.03 µM): 53.5%
viability, T/C (second compound 30 pM, first compound 0.0949 µM): 28.6%
viability, T/C (second compound 30 pM, first compound 0.3 µM): 11.9%
viability, T/C (second compound 30 pM, first compound 0.949 µM): 6.01%
viability, T/C (second compound 30 pM, first compound 3 µM): 3.44%
viability, T/C (second compound 94.9 pM, first compound 0.00949 µM): 47.9%
viability, T/C (second compound 94.9 pM, first compound 0.03 µM): 28.1%
viability, T/C (second compound 94.9 pM, first compound 0.0949 µM): 15.5%
viability, T/C (second compound 94.9 pM, first compound 0.3 µM): 7.46%
viability, T/C (second compound 94.9 pM, first compound 0.949 µM): 5.44%
viability, T/C (second compound 94.9 pM, first compound 3 µM): 2.76%
viability, T/C (second compound 0.0003 µM, first compound 0.00949 µM): 11.8%
viability, T/C (second compound 0.0003 µM, first compound 0.03 µM): 7.22%
viability, T/C (second compound 0.0003 µM, first compound 0.0949 µM): 5.49%
viability, T/C (second compound 0.0003 µM, first compound 0.3 µM): 4.25%
viability, T/C (second compound 0.0003 µM, first compound 0.949 µM): 5.23%
viability, T/C (second compound 0.0003 µM, first compound 3 µM): 2.79%
viability, T/C (second compound 0.000949 µM, first compound 0.00949 µM): 2.86%
viability, T/C (second compound 0.000949 µM, first compound 0.03 µM): 3.01%
viability, T/C (second compound 0.000949 µM, first compound 0.0949 µM): 2.85%
viability, T/C (second compound 0.000949 µM, first compound 0.3 µM): 3.24%
viability, T/C (second compound 0.000949 µM, first compound 0.949 µM): 2.36%
viability, T/C (second compound 0.000949 µM, first compound 3 µM): 1.56%
viability, T/C (second compound 0.003 µM, first compound 0.00949 µM): 0.64%
viability, T/C (second compound 0.003 µM, first compound 0.03 µM): 0.8%
viability, T/C (second compound 0.003 µM, first compound 0.0949 µM): 0.45%
viability, T/C (second compound 0.003 µM, first compound 0.3 µM): 0.68%
viability, T/C (second compound 0.003 µM, first compound 0.949 µM): 1.05%
viability, T/C (second compound 0.003 µM, first compound 3 µM): 0.79%

CC(C)n1c(=O)n(C)c2cnc3cc(F)c(-c4ccc(OCCCN5CCCCC5)nc4)cc3c21 + CC[C@@]1(O)C(=O)OCc2c1cc1n(c2=O)Cc2cc3c(CN(C)C)c(O)ccc3nc2-1
IC50 (second compound 0.003 µM): < 31.6 nM
IC50 (second compound 0.00949 µM): < 31.6 nM
IC50 (second compound 0.03 µM): < 31.6 nM
IC50 (second compound 0.0949 µM): < 31.6 nM
IC50 (second compound 0.3 µM): < 31.6 nM
viability, T/C (second compound 0.003 µM, first compound 0.0316 µM): 25.1%
viability, T/C (second compound 0.003 µM, first compound 0.1 µM): 25.5%
viability, T/C (second compound 0.003 µM, first compound 0.316 µM): 34.6%
viability, T/C (second compound 0.003 µM, first compound 1 µM): 45.5%
viability, T/C (second compound 0.003 µM, first compound 3.16 µM): 44.1%
viability, T/C (second compound 0.003 µM, first compound 10 µM): 28.1%
viability, T/C (second compound 0.00949 µM, first compound 0.0316 µM): 5.02%
viability, T/C (second compound 0.00949 µM, first compound 0.1 µM): 4.95%
viability, T/C (second compound 0.00949 µM, first compound 0.316 µM): 5.93%
viability, T/C (second compound 0.00949 µM, first compound 1 µM): 7.51%
viability, T/C (second compound 0.00949 µM, first compound 3.16 µM): 10.2%
viability, T/C (second compound 0.00949 µM, first compound 10 µM): 11.6%
viability, T/C (second compound 0.03 µM, first compound 0.0316 µM): 2.64%
viability, T/C (second compound 0.03 µM, first compound 0.1 µM): 2.9%
viability, T/C (second compound 0.03 µM, first compound 0.316 µM): 2.81%
viability, T/C (second compound 0.03 µM, first compound 1 µM): 3.34%
viability, T/C (second compound 0.03 µM, first compound 3.16 µM): 3.91%
viability, T/C (second compound 0.03 µM, first compound 10 µM): 4.32%
viability, T/C (second compound 0.0949 µM, first compound 0.0316 µM): 2.03%
viability, T/C (second compound 0.0949 µM, first compound 0.1 µM): 2.07%
viability, T/C (second compound 0.0949 µM, first compound 0.316 µM): 2.33%
viability, T/C (second compound 0.0949 µM, first compound 1 µM): 2.86%
viability, T/C (second compound 0.0949 µM, first compound 3.16 µM): 2.99%
viability, T/C (second compound 0.0949 µM, first compound 10 µM): 3.42%
viability, T/C (second compound 0.3 µM, first compound 0.0316 µM): 1.97%
viability, T/C (second compound 0.3 µM, first compound 0.1 µM): 2.19%
viability, T/C (second compound 0.3 µM, first compound 0.316 µM): 1.74%
viability, T/C (second compound 0.3 µM, first compound 1 µM): 2.16%
viability, T/C (second compound 0.3 µM, first compound 3.16 µM): 2.86%
viability, T/C (second compound 0.3 µM, first compound 10 µM): 2.71%
